The subject of one assay is human endothelial cells. As to the kind of experiment: Fn matrix assembly by endothelial cells in 3-D fibrin gel, confocal laser microscopy. It is filed as cell-based. On the procedure: Endothelial cells were isolated from human umbilical cord veins by collagenase digestion and cultured in Medium 199 (Gibco) containing 20% human serum, 50 μg/ml endothelial cell growth supplement (BD Biosciences), 100 U/ml penicillin, and 100 μg/ml streptomycin (Hiraoka et al. 1998. Cell, 95(3): 365-377). For 2-D/3-D culture, endothelial cell monolayers (no later than third passage) were suspended by mild trypsinization and dispersed within or plated atop fibrin (3 mg/ml) or collagen (2.2 mg/ml) gels (prepared as described in Hiraoka, supra, and Hotary et al. 2003. Cell, 114(1): 33-45), and stimulated with a cocktail of growth factors including 100 ng/ml human vascular endothelial growth factor (Genentech), 50 ng/ml human hepatocyte growth factor (Genentech), 10 ng/ml human TGFα (Biosource), 0.5 ng/ml TGFβ1 (R and D Systems), and 100 μg/ml heparin (Sigma). In selected experiments, endothelial cell spheroids were prepared and suspended in 3-D fibrin gels.
The effect of Fn matrix assembly, or lack thereof, on endothelial cell function during neovascularization was assessed. Human serum was depleted of Fn by gelatin-sepharose affinity chromatography (Amersham) and supplemented with either 20 μg/ml of human plasma Fn (Sigma) or FITC-labeled Fn. […]
(Chernousov et al. 1991. J. Biol. Chem., 266(17): 10851-10858; Tomasini-Johansson et al. 2001. J. Biol. Chem., 276(26): 23430-23439; Mao and Schwarzbauer. 2005. Matrix Biol., 24(6): 389-399; and Tomasini-Johansson et al. 2006. Matrix Biol., 25(5): 282-293). […] Cell number in 3-D cultures was determined by hemacytometry after dissolving gels with 2 mg/ml bacterial collagenase (Worthington) while the number of patent tubules was determined in randomly selected cross-sections. Fn matrix assembly and cell morphology were monitored by confocal laser microscopy. To examine cell migration, endothelial cells were embedded in a 100 μl fibrin gel for 2 hours, then placed within a 500 μl gel for 8 days in the presence of Del29, FUD, control IgG, or L8, after which migration from the inner gel was assessed. […]

The test system of assay [1] is chorioallantoic membrane (CAM) of live chicks. As to the kind of experiment: Chick chorioallantoic membrane (CAM) angiogenesis into 3-D matrices. The class given is in vivo. To be noted: 3 days, VEGF and HGF, versus Del29 control. On the procedure:
The functional role for fibrillogenesis in tissue sites undergoing active angiogenesis in vivo was assessed. To this end, 3-D composite gels of fibrin and type I collagen were placed atop the chorioallantoic membrane (CAM) of live chicks, and angiogenesis was initiated in the presence of FUD or the Del29 peptide control. In particular, 3-D matrices of type I collagen or a type I collagen/fibrin composite matrix were cast in transwell tissue culture inserts (24 well size) perforated with a 25 gauge needle. A 30 μl Matrigel (BD Biosciences) reservoir was placed atop the matrix containing 200 ng VEGF, 100 ng HGF, and either Del29 or FUD. The entire apparatus was placed atop the dropped CAM of 10-11 day old fertile chicken eggs. Following incubation in a humidified incubator at 37° for 3 days, the matrices were harvested. Vascular ingrowth was monitored by light microscopy following H&E staining. In some experiments, FITC-Fn (McKeown-Longo and Mosher. 1985. J. Cell. Biol., 100(2): 364-74) was supplemented in the matrices during the culture period, and Fn fibrillogenesis within the gels was monitored by confocal laser microscopy.

Assay [2] deals with β-actin, α-actinin, and MLC2. As to the kind of experiment: Western blot with semi-quantitative densitometry of cytoskeletal proteins. It is filed as cell-based, human. The note with it: 3-D fibrin gel. The source says: Tractional forces exerted at cell-matrix adhesion sites require the activation of an actinomyosin motor complex whose assembly is tightly linked to actin cytoskeleton organization, non-muscle myosin II isoform expression, and the rigidity of the surrounding substratum (Meshel et al. 2005. Nat. Cell Biol., 7(2): 157-164; Engler, supra; and Even-Ram, supra; Yoneda et al. 2007. Mol. Cell. Biol., 19(1): 66-75). β-actin, α-actinin, myosin light chain-2 (MLC2), and non-muscle myosin IIA and IIB isoform (NMMIIA and NMMIIB, respectively) protein levels were monitored in 3-D embedded endothelial cells to determine the effect of Fn matrix inhibition on the expression of gene products critical to the generation of tractional forces. Endothelial cells were cultured in 3-D fibrin gels for 2 days with either the FUD peptide or the control Del29 peptide. Levels of β-actin, α-actinin, NMMIIA, NMMIIB, and MLC2 were measured by Western blot, with ERK1/2 serving as the loading control. As assessed by semi-quantitative densitometry, the levels of β-actin, actinin and MLC2 were 58±7% (n=5; mean±1 SD), 62% (n=2), and 60±12% (n=3; mean±1 SD) of control, respectively.

Turning to `Cc1ccc2c(c1)C(=O)C1(O)CCN(c3ccccc3)C1=N2` (centres unmarked) [blebbistatin], the “pericellular Fn matrix assembly” value in the assay on human endothelial cells (2 days, 50 μM blebbistatin) was “failed to assemble”.
As to “FUD: 49-residue functional upstream domain of Streptococcus pyogenes F1 adhesion protein, SEQ ID NO: 10; fibronectin fibril assembly inhibitor (KDQSPLAGESGETEYITEVYGNQQNPVDIDKKLPNETGFSGNMVETEDT; Streptococcus pyogenes; Functional Upstream Domain (FUD) of F1 adhesion protein)”, the “Fn matrix assembly (Fn polymerization)” value in the assay on human endothelial cells (growth factor cocktail, FUD or Del29 250 nM, L8 or 9D2 100 μg/ml, 70 kDa Fn fragment 75 μg/ml) is “attenuated”. Also, in assay [1], the “Fn matrix assembly in ECM construct” value is recorded as “almost completely inhibited” and the “neovessel formation (vascular ingrowth)” value is “ablated”. Moreover, the level of actinin in assay [2] (2 days, control Del29 peptide, n=2) is listed as 62 % of control. Also, the “level of MLC2” value in assay [2] (2 days, control Del29 peptide, n=3, mean±1 SD) is 60±12 % of control. In addition, in assay [2] (2 days, control Del29 peptide, n=5, mean±1 SD), the “level of β-actin” value is on record as 58±7 % of control. For the same compound, the “levels of β-actin, α-actinin, and MLC2” value in assay [2] (growth factor-stimulated) is listed as “markedly reduced”.

Values taken from patent US8697081B2, “Method of modulating neovascularization” (The Regents of the University of Michigan, priority 2008, dated 2014).
